Source: the NIST ThermoML archive (doi:10.1016/j.jct.2012.06.023)

Test: xn = mol fraction of the nth substance listed
Details: for surface tension liquid-gas: Wilhelmy plate; for viscosity: 101 kPa, Liquid, Concentric cylinders viscometry

CCCCCCCO [heptan-1-ol] + CN(C)C=O
Details	surface tension liquid-gas, 298.15 K [mN/m]	surface tension liquid-gas, 303.15 K [mN/m]	surface tension liquid-gas, 308.15 K [mN/m]	surface tension liquid-gas, 313.15 K [mN/m]	viscosity, 298.15 K [mPa·s]	viscosity, 303.15 K [mPa·s]	viscosity, 308.15 K [mPa·s]	viscosity, 313.15 K [mPa·s]
x2 = 0	26.47	25.38	24.33	23.5	5.944	5.069	4.333	3.726
x2 = 0.1852	27.06	25.94	24.87	24.01	3.662	3.061	2.599	2.21
x2 = 0.3466	27.51	26.35	25.25	24.34	2.48	2.044	1.734	1.465
x2 = 0.4928	27.98	26.77	25.64	24.69	1.77	1.452	1.238	1.048
x2 = 0.6004	28.74	27.52	26.38	25.41	1.432	1.183	1.021	0.8722
x2 = 0.6878	29.48	28.25	27.1	26.11	1.224	1.026	0.898	0.7775
x2 = 0.7679	30.53	29.32	28.17	27.17	1.079	0.9233	0.8218	0.7462
x2 = 0.8369	31.64	30.44	29.3	28.3	0.9874	0.8807	0.7949	0.7165
x2 = 0.8984	32.86	31.7	30.57	29.57	0.918	0.8403	0.7775	0.7082
x2 = 0.951	34.06	32.93	31.82	30.82	0.8665	0.8038	0.7541	0.6934
